Source: ChEMBL document CHEMBL1149989, “Synthesis and biological evaluation of flavonoids and related compounds as gastroprotective agents” (1996)

Legend:
Assay type in all cases: functional
Rattus norvegicus [1] = test: Gastroprotective activity in rat ethanol-induced damage model following intraperitoneal administration.; parameters: concentration or dose not given beside the values
Rattus norvegicus [2] = test: Compound was tested for gastroprotective activity in rat ethanol-induced damage model following oral administration (0.1 mg/kg).
Rattus norvegicus [3] = test: Effective dose gastroprotective activity in rat ethanol-induced damage model following intraperitoneal administration.; settings: ip
Rattus norvegicus [4] = test: Effective dose for gastroprotective activity in rat ethanol-induced damage model following intraperitoneal administration.; settings: ip

SMILES	Protection (Rattus norvegicus [1]) [%]	further results
Cn1c(-c2cc(=O)c3ccccc3o2)cc2ccccc21	74	–
S=c1cc(-c2ccccc2)oc2ccccc12	58	–
COc1cccc2c1C(=O)CC(c1ccccc1)O2 (configuration not stated)	32	–
CN/C(=N\CCSCc1nc[nH]c1C)NC#N [CIMETIDINE]	–	Protection (Rattus norvegicus [2]): 14%
Oc1cc(-c2ccccc2)nc2ccccc12	17	–
CC(C)Oc1ccc2c(=O)c(-c3ccccc3)coc2c1 [IPRIFLAVONE]	<10	–
CCc1cc(=O)c2ccccc2o1	74	ED50 (Rattus norvegicus [3]): 4.3 mg/kg
O=c1cc(-c2cccnc2)oc2ccccc12	97	–
Cc1cc(=O)c2ccccc2o1	76	ED50 (Rattus norvegicus [4]): 5.4 mg/kg
CCCCC[C@H](O)/C=C/[C@H]1[C@H](O)CC(=O)[C@@H]1C/C=C\CCCC(=O)O [DINOPROSTONE]	–	Protection (Rattus norvegicus [2]): 64%
O=C(/C=C/c1ccccc1)c1ccccc1 [CHALCONE]	32	–
O=C1CC(c2ccccc2)Oc2ccccc21 (configuration not stated) [FLAVANONE]	24	–
COc1cccc2oc(C)cc(=O)c12	81	–
O=c1cc(-c2ccccc2)sc2ccccc12	67	–
O=c1c(-c2ccccc2)coc2ccccc12 [ISOFLAVONE]	<10	–
Nc1ccccc1C(=O)/C=C/c1ccccc1	36	–
O=c1cc(-c2ccccc2)oc2ccccc12 [FLAVONE]	88	ED50 (Rattus norvegicus [4]): 6.9 mg/kg
COc1ccccc1C(=O)CC(=O)c1ccccc1	19	–
O=c1cc(-c2cccs2)oc2ccccc12	82	–
